{"source": "paper PMC9214036", "about": "“Design and Synthesis of Novel PRMT1 Inhibitors and Investigation of Their Effects on the Migration of Cancer Cell” (Frontiers in Chemistry, 2022)", "key": {"A549 cells [1]": {"test_system": "A549 cells", "assay": "Western blot of PRMT-related proteins (SDMA, ADMA, DDAH, PRMT1) in A549 cells", "assay_type": "cell-based, human", "conditions": "WCJ-394 5, 10, 20 μM, 48 h", "experimental": "(§1) A549 cells in the logarithmic growth phase were seeded into a 6-well cell culture plate at a density of 3 × 10^5 cells per well.\n(§2) A549 cells were lysed in RIPA buffer, which contains protease and phosphatase inhibitors, and then harvested in Eppendorf tubes for centrifugation (14,000 rpm for 10 min at 4°C) to remove cell debris. The supernatants were transferred into new Eppendorf tubes, and the protein concentration was quantified with a BCA kit (Thermo Fisher). The protein samples were separated by 10% SDS-PAGE and transferred onto polyvinylidene difluoride (PVDF) membranes. The membranes were blocked for 1 h at room temperature in 5% BSA and then incubated with the corresponding primary antibodies overnight at 4°C and then incubated with secondary antibodies for another 1 h at room temperature. After being washed with TBST buffer three times, the PVDF membranes were visualized with ECL reagents (Millipore) and the Western blot results were further analyzed by ImageJ software (National Institutes of Health)."}, "PRMT6": {"biological_target": "PRMT6 (Homo sapiens, UniProt Q96LA8)", "sequence (Q96LA8 whole entry)": "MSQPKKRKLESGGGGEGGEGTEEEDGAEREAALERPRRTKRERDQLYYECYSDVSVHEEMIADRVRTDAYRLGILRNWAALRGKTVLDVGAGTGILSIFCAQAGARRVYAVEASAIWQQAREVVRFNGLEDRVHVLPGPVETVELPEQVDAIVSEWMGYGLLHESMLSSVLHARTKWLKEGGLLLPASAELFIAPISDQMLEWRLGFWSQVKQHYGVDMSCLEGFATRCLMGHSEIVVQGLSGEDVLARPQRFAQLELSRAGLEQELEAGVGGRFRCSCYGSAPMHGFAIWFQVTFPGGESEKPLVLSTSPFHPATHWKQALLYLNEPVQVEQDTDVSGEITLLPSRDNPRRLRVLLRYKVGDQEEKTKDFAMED", "assay": "AlphaLISA selectivity assay, PRMT6", "assay_type": "biochemical", "conditions": "read-out: IC50 against PRMT6", "experimental": "(§3) […]. […] Next, 5 μl of enzyme solution was transferred to the assay plate and incubated at room temperature for 15 min. Then, 5 μl of substrate solution was added to each well to start the reaction. After incubation at room temperature for 30 min (PRMT4,6) and 60 min (PRMT3,8), 15 μl of acceptor and donor bead mix solution were added to the assay plate and incubated at room temperature for 60 min with subdued light. The signal was collected with Envision or EnSpire with Alpha mode. The data were analyzed in GraphPad Prism 5 to obtain IC50 values."}, "PRMT1": {"biological_target": "PRMT1 (Homo sapiens, UniProt Q99873)", "sequence (Q99873 whole entry)": "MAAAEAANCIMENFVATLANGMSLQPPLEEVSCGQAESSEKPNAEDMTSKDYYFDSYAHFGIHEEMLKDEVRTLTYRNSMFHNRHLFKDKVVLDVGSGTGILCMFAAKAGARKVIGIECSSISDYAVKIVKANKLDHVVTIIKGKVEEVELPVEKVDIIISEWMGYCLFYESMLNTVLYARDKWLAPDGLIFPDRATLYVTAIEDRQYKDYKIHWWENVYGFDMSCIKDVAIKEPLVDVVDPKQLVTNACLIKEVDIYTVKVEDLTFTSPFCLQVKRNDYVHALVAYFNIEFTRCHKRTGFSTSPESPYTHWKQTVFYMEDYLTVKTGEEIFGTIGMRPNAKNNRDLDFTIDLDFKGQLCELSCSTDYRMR", "assay": "Radioactive PRMT1 methylation inhibition assay ([3H]-SAM, biotinylated histone H4 peptide)", "assay_type": "biochemical", "experimental": "A series of 2,5-substituted furan and 2,4-substituted thiazole derivatives were synthesized and screened for their inhibitory effects on PRMT1 by using the radioactive PRMT1 methylation inhibition assay, which measured the amount of methyl groups that transferred from [^3H]-SAM to a biotinylated histone H4 peptide [ac-[…](Biotin)] (Tables 1–3).\nThe enzyme inhibitory activities and selectivity were measured by the radioisotope assay and AlphaLISA assay in ShangHai Chempartner Co., Ltd., according to the standard protocol. […] After 250 nL of compound solutions were added to the assay plate, 15 μl of PRMT1 enzyme solution or ×1 assay buffer for negative control was transferred to each well of prepared compound stock plates and the whole system (the final concentration of PRMT1 was 0.5 nM or 2 nM in the system) was incubated for 15 min at room temperature. […] Afterward, the reaction was stopped with the addition of 5 μl cold SAM solution to each well. Then, 25 μl volume per well was transferred to a Flashplate from the assay plate and incubated for a minimum of 1 h at room temperature. Finally, the Flashplate was washed with dH2O and 0.1% Tween-20 three times and then the reading plate in Microbeta using the program ^3H-Flashplate. The data were analyzed in GraphPad Prism 5 to obtain IC50 values."}, "TGF-β signaling": {"test_system": "TGF-β signaling", "assay": "cells", "conditions": "18 h, read-out: IC50, inhibition of TGF-β signaling", "experimental": "The medium was changed into DMEM with 0.1% FBS. […] The final concentration of DMSO should be maintained at 0.1%. After incubation, the medium was removed and the cells were rinsed with PBS to remove any residual compound. One hundred microliters of the Steady-Glo® Luciferase Assay reagent (Promega) was added to each well, and the cells were lysed in the dark for 10 min on a horizontal shaker. The luciferase activity was measured in a luminometer."}, "A549 cells [2]": {"test_system": "A549 cells", "assay": "Western blot of TGF-β1-induced mesenchymal markers (EMT) in A549 cells", "assay_type": "cell-based, human", "conditions": "TGF-β1 48 h, WCJ-394 pretreatment 5, 10, 20 μM", "experimental": "as §1, §2"}, "PRMT4": {"biological_target": "T1, PRMT4 (Homo sapiens, UniProt Q86X55)", "T1 sequence (Q86X55 1-608)": "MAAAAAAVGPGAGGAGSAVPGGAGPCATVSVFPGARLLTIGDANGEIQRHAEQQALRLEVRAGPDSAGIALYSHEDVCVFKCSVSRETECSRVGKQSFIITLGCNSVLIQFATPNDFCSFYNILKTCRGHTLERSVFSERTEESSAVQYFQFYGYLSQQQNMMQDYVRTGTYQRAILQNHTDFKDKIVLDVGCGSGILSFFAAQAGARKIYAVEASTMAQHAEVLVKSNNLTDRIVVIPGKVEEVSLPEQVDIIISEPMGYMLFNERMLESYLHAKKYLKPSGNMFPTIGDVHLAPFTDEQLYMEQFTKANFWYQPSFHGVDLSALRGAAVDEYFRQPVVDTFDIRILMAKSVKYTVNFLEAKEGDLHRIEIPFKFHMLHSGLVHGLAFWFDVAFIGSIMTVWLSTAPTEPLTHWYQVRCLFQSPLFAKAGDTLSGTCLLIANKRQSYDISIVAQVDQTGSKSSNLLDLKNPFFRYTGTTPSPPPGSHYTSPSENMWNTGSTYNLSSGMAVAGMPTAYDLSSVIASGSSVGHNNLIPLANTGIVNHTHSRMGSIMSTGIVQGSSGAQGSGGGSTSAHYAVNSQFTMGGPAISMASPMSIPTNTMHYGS", "assay": "AlphaLISA selectivity assay, PRMT4", "assay_type": "biochemical", "conditions": "read-out: IC50 against PRMT4", "experimental": "as §3"}, "A549 cells [3]": {"test_system": "A549 cells", "assay": "Scratch wound healing assay, TGF-β1-induced A549 cell migration", "assay_type": "cell-based, human", "experimental": "In the scratch wound healing assay, the percentages of scratch widths at 24 and 48 h compared to that of 0 h were used to denote the rate of A549 cell migration. As shown in Figures 6A–C, the TGF-β1 treatment promoted the scratched wound closure.\nThe monolayer cell was scratched with a new 10 μl pipette tip across the center of the well, and the detached cells were gently rinsed with PBS buffer. […] The scratch was photographed through a microscope at ×100 magnification at 0, 24, and 48 h. Then, the scratch width was quantified by ImageJ software and the rate of wound closure was calculated with the final values expressed as a migration percentage of the scratch width relative to 0 h."}, "PRMT3": {"biological_target": "PRMT3 (Homo sapiens, UniProt O60678)", "sequence (O60678 whole entry)": "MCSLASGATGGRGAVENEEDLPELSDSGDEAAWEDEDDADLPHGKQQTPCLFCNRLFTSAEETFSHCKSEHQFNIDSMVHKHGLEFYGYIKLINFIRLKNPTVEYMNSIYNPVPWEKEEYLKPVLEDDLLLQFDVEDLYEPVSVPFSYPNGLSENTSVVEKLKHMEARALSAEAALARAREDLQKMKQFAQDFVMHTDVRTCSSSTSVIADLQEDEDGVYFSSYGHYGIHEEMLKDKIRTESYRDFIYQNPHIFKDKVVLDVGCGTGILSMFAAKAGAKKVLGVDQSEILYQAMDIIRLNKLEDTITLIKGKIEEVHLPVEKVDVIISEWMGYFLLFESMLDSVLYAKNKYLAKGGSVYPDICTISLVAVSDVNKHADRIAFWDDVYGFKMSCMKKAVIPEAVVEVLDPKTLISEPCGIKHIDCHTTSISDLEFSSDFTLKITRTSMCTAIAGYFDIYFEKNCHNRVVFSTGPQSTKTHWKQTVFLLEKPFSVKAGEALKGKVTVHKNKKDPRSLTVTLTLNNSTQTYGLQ", "assay": "AlphaLISA selectivity assay, PRMT3", "assay_type": "biochemical", "conditions": "read-out: IC50 against PRMT3", "experimental": "as §3"}, "A549 cells [4]": {"test_system": "A549 cells", "assay": "Transwell migration assay, TGF-β1-induced A549 cell migration", "assay_type": "cell-based, human", "conditions": "TGF-β1, WCJ-394 pretreatment 5, 10, 20 μM", "method": "A549 cells in the logarithmic growth phase were resuspended with a serum-free DMEM medium and seeded into the 8-μm transwell filter inserts at a density of 8 × 10^3 cells per well; meanwhile, 600 μl medium containing 10% FBS was added into the lower chambers of the 24-well cell culture plate. […] After incubation, the cells in the upper chambers were carefully removed with a cotton swab, while the cells that had traversed to the bottom side of the membrane were fixed with 4% paraformaldehyde for 15 min and stained with 0.1% crystal violet for 20 min. The chambers were washed with PBS buffer to remove extra crystal violet. Three fields of view were randomly taken and photographed from the central and surrounding parts of each membrane under a microscope at ×100 magnification, and cell number was calculated by ImageJ software."}, "PRMT8": {"biological_target": "PRMT8 (Homo sapiens, UniProt Q9NR22)", "sequence (Q9NR22 whole entry)": "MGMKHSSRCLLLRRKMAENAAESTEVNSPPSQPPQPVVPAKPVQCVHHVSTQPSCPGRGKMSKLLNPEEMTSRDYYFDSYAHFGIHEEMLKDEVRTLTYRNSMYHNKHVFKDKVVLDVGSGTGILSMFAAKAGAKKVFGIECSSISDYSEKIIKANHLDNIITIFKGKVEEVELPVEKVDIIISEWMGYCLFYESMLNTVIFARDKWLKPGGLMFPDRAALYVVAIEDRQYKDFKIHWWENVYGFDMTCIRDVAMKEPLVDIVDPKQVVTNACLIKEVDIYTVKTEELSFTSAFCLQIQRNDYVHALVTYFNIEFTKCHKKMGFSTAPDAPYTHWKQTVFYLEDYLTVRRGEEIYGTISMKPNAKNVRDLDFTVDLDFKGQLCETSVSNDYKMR", "assay": "AlphaLISA selectivity assay, PRMT8", "assay_type": "biochemical", "conditions": "read-out: IC50 against PRMT8", "experimental": "as §3"}, "[5]": {"assay": "CCK-8 cell viability assay in A549 cells", "assay_type": "cell-based, human", "conditions": "human, A549 cells treated for 48 h, read-out: IC50 (CC50), A549 cell viability", "experimental": "(§4) To determine the effects of WCJ-394 on the inhibition of TGF-β1-induced epithelial–mesenchymal transition (EMT) in A549 cells, the characterized proteins were detected using the Western blotting assay.\n(§5) Cells were seeded into a 96-well plate; after 12 h of attachment, the cells were treated with different concentrations (0–1,600 μΜ) of WCJ-394 for 48 h. Cell viability was assessed by a Cell Counting Kit-8 (CCK-8; MCE) according to the manufacturer’s instructions. Briefly, after treatment, the CCK-8 solution was added to the culture medium and incubated at 37°C for 1 h. Cell viability was assessed by measuring the absorbance at 450 nm. In the subsequent luciferase assays, the effects of WCJ-394 on the cell viability were examined in parallel to exclude the compound-induced cell death."}, "A549 cells [6]": {"test_system": "A549 cells", "assay": "CCK-8 cell viability assay in A549 cells", "assay_type": "cell-based, human", "conditions": "concentrations of 0–50 μM", "experimental": "as §4, §5"}, "MLEC": {"test_system": "MLEC", "assay": "MLEC cell viability (CCK-8) under the luciferase assay condition", "assay_type": "cell-based, mink", "conditions": "concentration up to 100 μM, same condition as luciferase assay", "experimental": "as §5\nThe luciferase activity was measured in a luminometer."}}, "note": "Counter-ions that a name gives are not always drawn."}
{"smiles": "CN(CCN)Cc1csc(-c2ccc(C(=N)N)nc2)n1", "note": "[Compound 1r, N′-[2-(2-Aminocarboximido-5-pyridyl)thiazol-4-yl-methyl]-N′-methylethylenediamine Hydrochloride]", "values": [{"measurement": "expression level of ADMA", "setting": "A549 cells [1]", "result": "significantly reduced in a concentration-dependent manner"}, {"measurement": "expression of DDAH", "setting": "A549 cells [1]", "result": "significantly decreased in a concentration-dependent manner"}, {"measurement": "expression of PRMT1", "setting": "A549 cells [1]", "result": "not significantly affected"}, {"measurement": "expression of SDMA", "setting": "A549 cells [1]", "result": "not affected"}, {"measurement": "IC50", "setting": "PRMT6", "result": "29.7 ± 2.03", "unit": "µM"}, {"measurement": "PRMT1 IC50 compared with SAH", "setting": "PRMT1; fold weaker than SAH", "result": "about two times weaker than SAH"}, {"measurement": "IC50", "setting": "PRMT1; radioactive methylation assay, read-out: IC50 (μM) against PRMT1", "result": "1.21 ± 0.11", "unit": "µM"}, {"measurement": "inhibition at 10 µM", "setting": "PRMT1; read-out: % Inhibition of PRMT1 (at 10 μM)", "result": "98.5 ± 0.04", "unit": "%"}, {"measurement": "IC50", "setting": "TGF-β signaling", "result": 17.7, "unit": "µM"}, {"measurement": "expression of EMT-related proteins (fibronectin, N-cadherin, MMP-2, α-SMA)", "setting": "A549 cells [2]", "result": "decreased (p < 0.05) by the pretreatment of WCJ-394 in a concentration-dependent manner"}, {"measurement": "IC50", "setting": "PRMT4", "result": "1.64 ± 0.17", "unit": "µM"}, {"measurement": "TGF-β1-induced cell migration (scratched wound closure) at 24 h", "setting": "A549 cells [3]; WCJ-394 pretreatment at 10 or 20 μM, 24 h", "result": "significantly inhibited"}, {"measurement": "TGF-β1-induced cell migration (scratched wound closure) at 48 h", "setting": "A549 cells [3]; WCJ-394 pretreatment, 48 h", "result": "retardation effect of WCJ-394 on cell migration was further detected"}, {"measurement": "IC50", "setting": "PRMT3", "result": "57.6 ± 0.62", "unit": "µM"}, {"measurement": "number of migrated cells (transwell)", "setting": "A549 cells [4]", "result": "significantly decreased the number of migrated cells in a concentration-dependent manner"}, {"measurement": "IC50", "setting": "PRMT8", "result": "5.71 ± 0.05", "unit": "µM"}, {"measurement": "IC50 at 48 h", "setting": "[5]", "result": 584, "unit": "µM"}, {"measurement": "cytotoxicity in A549 cells", "setting": "A549 cells [6]", "result": "did not result in any cytotoxicity"}, {"measurement": "cytotoxicity in MLEC (cell viability)", "setting": "MLEC", "result": "without showing significant cytotoxicity"}]}
